From PubChem BioAssay (NCI)
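Tested at 5 concentrations; 48 h exposure; 96-well plates; endpoints linearly interpolated, else capped at highest concentration. GI50 is the concentration that inhibits growth by half. Definition used: TGI = concentration required for complete inhibition of growth.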

Key:
Assay in all cases: NCI tumour cell line growth inhibition, 48 h
[1] = system: SK-OV-3 ovarian
[2] = system: ACHN renal
[3] = system: UO-31 renal
[4] = system: NCI-H226 lung
[5] = system: SW-620 colon
[6] = system: UACC-257 melanoma
[7] = system: MALME-3M melanoma
[8] = system: SF-539 CNS
[9] = system: SR leukemia
[10] = system: SK-MEL-5 melanoma

| SMILES | TGI [1] [µM] | TGI [2] [µM] | TGI [3] [µM] | TGI [4] [µM] | TGI [5] [µM] | TGI [6] [µM] | TGI [7] [µM] | TGI [8] [µM] | TGI [9] [µM] | TGI [10] [µM] | GI50 [1] [µM] | GI50 [2] [µM] | GI50 [3] [µM] | GI50 [4] [µM] | GI50 [5] [µM] | GI50 [6] [µM] | GI50 [7] [µM] | GI50 [8] [µM] | GI50 [9] [µM] | GI50 [10] [µM] |
| --- | --- | --- | --- | --- | --- | --- | --- | --- | --- | --- | --- | --- | --- | --- | --- | --- | --- | --- | --- | --- |
| CC(=O)Oc1ccc2c(c1)CC[C@@H]1C2CC[C@]2(C)C(=O)NC(=O)CC12 (some centres not stated) | > 100 | > 100 | > 100 | > 100 | > 100 | > 100 | > 100 | > 100 | > 100 | > 100 |  |  |  |  |  |  |  |  |  |  |
| Nc1[nH]c(=O)ncc1CO | > 100 | > 100 | > 100 | > 100 | > 100 | > 100 | > 100 | > 100 | > 100 | > 100 | > 100 | > 100 | > 100 | > 100 | > 100 | > 100 | > 100 | > 100 | > 100 | > 100 |
| COc1cc2c(c(OC)c1OC)-c1ccc(SC)c(=O)cc1[C@@H](NC(=O)c1ccc(Cl)cc1)CC2 |  | > 100 | 62.6 | < 0.01 | 41.3 | > 100 | 5.03 | < 0.01 | > 100 | < 0.01 |  |  |  |  |  |  |  |  |  |  |
| Cc1nc(N)nc2ccccc12 | > 100 | > 100 | > 100 |  | > 100 | > 100 | > 100 | > 100 | > 100 | > 100 |  |  |  |  |  |  |  |  |  |  |
| O=c1c2ccccc2oc2ccc(OCCCCCCN3CCCCCC3)cc12 | 8.29 | 13.2 | 6.32 | 20.2 | 11 | 5.28 | 3.68 | 3.4 | 4.93 | 3.04 | 2.77 | 3.68 | 2.05 | 4.29 | 3.11 | 2.52 | 1.93 | 1.76 | 1.95 | 1.68 |
| Cc1cc(Cl)ccc1Nc1nc(C(F)(F)F)ccc1C(=O)N1CCN(c2cccc(Cl)c2)CC1 | > 100 | > 100 | > 100 | > 100 | > 100 | > 100 | > 100 | > 100 | > 100 | > 100 | > 100 | > 100 | 67.3 | > 100 | > 100 | > 100 | > 100 | > 100 | > 100 | 65.6 |
| COc1cc2cc3c4c(cc(OC)c(OC)c4c2cc1OC)CCN3C(=O)CCC(=O)NCCCN(C)C | > 100 | > 100 | > 100 | > 100 | > 100 | > 100 | > 100 | 59.3 | 62 | 28.2 |  |  |  |  |  |  |  |  |  |  |
| CC1=NN(C(=O)c2ccccc2O)C(=O)/C1=C/c1cccc([N+](=O)[O-])c1 | > 100 | > 100 |  | > 100 | > 100 | > 100 | > 100 | 5.88 | > 100 | > 100 |  |  |  |  |  |  |  |  |  |  |
